Data published in patent US5008273A, “Amino acid derivatives and their pharmaceutical use” (Boehringer Ingelheim GmbH, priority 1985, dated 1991).

Target: angiotensin converting enzyme (Homo sapiens, UniProt P12821)
Experiment: inhibition of the isolated angiotensin converting enzyme
Assay type: biochemical
Excerpt: The following values were obtained for the inhibition of the isolated angiotensin converting enzyme: […]

Chain of angiotensin converting enzyme (P12821 30-1306, species assumed): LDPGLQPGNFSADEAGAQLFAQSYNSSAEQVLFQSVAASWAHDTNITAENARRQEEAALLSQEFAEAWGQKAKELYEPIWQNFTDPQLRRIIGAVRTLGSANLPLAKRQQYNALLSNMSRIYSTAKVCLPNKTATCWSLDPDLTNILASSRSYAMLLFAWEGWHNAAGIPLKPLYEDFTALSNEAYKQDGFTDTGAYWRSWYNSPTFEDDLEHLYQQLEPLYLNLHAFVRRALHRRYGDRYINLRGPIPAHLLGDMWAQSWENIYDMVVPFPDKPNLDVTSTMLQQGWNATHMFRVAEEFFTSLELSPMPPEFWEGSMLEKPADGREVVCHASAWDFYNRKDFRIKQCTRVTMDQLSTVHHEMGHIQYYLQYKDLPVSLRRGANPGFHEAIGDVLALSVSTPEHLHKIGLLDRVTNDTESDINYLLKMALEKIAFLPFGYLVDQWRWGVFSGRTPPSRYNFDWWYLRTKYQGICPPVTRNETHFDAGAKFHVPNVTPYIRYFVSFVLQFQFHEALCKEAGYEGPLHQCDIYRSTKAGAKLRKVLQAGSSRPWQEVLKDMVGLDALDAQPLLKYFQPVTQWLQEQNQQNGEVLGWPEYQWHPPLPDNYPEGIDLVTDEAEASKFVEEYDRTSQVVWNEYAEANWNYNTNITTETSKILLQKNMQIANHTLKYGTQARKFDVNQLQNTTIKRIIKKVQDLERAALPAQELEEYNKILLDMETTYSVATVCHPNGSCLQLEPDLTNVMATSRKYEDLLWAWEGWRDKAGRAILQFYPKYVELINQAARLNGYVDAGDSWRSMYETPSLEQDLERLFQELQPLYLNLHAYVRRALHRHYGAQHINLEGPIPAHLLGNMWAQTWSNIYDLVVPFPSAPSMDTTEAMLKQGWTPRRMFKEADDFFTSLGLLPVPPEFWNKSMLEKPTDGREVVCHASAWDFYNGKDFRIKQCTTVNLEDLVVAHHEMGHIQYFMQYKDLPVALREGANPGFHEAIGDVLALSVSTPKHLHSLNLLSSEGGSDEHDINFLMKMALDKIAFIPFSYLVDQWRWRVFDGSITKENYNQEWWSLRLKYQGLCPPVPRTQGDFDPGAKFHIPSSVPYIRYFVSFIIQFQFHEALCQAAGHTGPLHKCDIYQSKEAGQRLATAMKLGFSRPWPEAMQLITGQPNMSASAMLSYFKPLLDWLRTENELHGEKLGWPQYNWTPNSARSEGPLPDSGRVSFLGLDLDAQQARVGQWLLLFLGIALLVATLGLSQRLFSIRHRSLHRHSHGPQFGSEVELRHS

IC50 [nM]	Compound
3.5	NCCCC[C@H](N[C@@H](CCc1ccccc1)C(=O)O)C(=O)N1CCc2sccc2[C@H]1C(=O)O [Example 2, N-[N-(1(S)-Carboxy-3-phenylpropyl)-L-lysyl]4,5,6,7-tetrahydro-thieno[3,2-c]pyridine-4(S)-carboxylic acid]
18	NCCCC[C@H](N[C@@H](CCc1ccccc1)C(=O)O)C(=O)N1CCc2ccsc2[C@@H]1C(=O)O [Example 4, N-[N-(1(S)-Carboxy-3-phenylpropyl)-L-lysyl]4,5,6,7-tetrahydro-thieno[2,3-c]pyridine-7(S)-carboxylic acid]
14	NCCCC[C@H](N[C@@H](CCc1ccccc1)C(=O)O)C(=O)N1Cc2sccc2C[C@H]1C(=O)O [Example 7, N-[N-(1(S)-Carboxy-3-phenylpropyl)-L-lysyl]-4,5,6,7-tetrahydro-thieno[2,3-c]pyridine-5(S)-carboxylic acid]
2.9	NCCCC[C@H](N[C@@H](CCc1ccccc1)C(=O)O)C(=O)N1Cc2ccsc2C[C@H]1C(=O)O [Example 10, N-[N-(1(S)-Carboxy-3-phenylpropyl)-L-lysyl]-4,5,6,7-tetrahydro-thieno[3,2-c]pyridine-6(S)-carboxylic acid]
